Measured values: patent publication US6180599A, “Pharmaceutical composition, containing medium-chain fatty acids as active ingredients, for dental caries and periodontal disease” (priority 1997, dated 2001)

Columns and labels:
[1] = tested on: cariogenic plaque bacteria (standard strains); assay: Inhibitory effect of acid production, standard strains; type: cell-based, Streptococcus, Lactobacillus and Actinomyces; conditions: for inhibitory effect of acid production (in words): 0.5-8 mM, pH 5.0 and 7.0, 24-48 hours
Protocol: In order to identify the action by which medium-chain fatty acids inhibit acid production, the inhibitory effect and concentration of acid production were determined in seven kinds of standard cariogenic plaque bacteria. Also, the inhibitory effect of acid production for 20 kinds of cariogenic plaque bacteria, separated from the human oral cavity, was assayed. Liquid culture media used were: Todd-Hewitt broth of Streptococcus, Lactobacilli MRS broth of Lactobacillus and Brain Heart Infusion broth of Actinomyces. […] The final pH of the culture medium was measured after culturing for 24^~ 48 hours in 10% CO2 incubator.

[2] = tested on: cariogenic plaque bacteria separated from human oral cavities; assay: Extracellular polysaccharide synthesis, 20 kinds of bacteria separated from human oral cavities (summary); type: cell-based; conditions: 1 mM
Protocol: (§1) In order to identify the effect by which medium-chain fatty acids inhibit plaque matrix formation, inhibitory effect and concentration of extracellular polysaccharide synthesis were determined in seven kinds of standard cariogenic plaque bacteria. Also, the inhibitory effect of extracellular polysaccharide synthesis for 20 kinds of cariogenic plaque bacteria, separated from the human oral cavity, was measured. Liquid culture media used were: Todd-Hewitt broth of Streptococcus, Lactobacilli MRS broth of Lactobacillus and Brain Heart Infusion broth of Actinomyces. 0.1 ml of bacterial (or cell) suspension (OD600 =0.5) of each bacteria was inoculated to 5.9 ml of culture media containing 1 mM of medium-chain fatty acids and 2% of glucose, and was cultured for 24^~ 48 hours in 10% CO2 incubator. After culturing, the resultant was centrifuged to precipitate at 5,000×g for 15 minutes, then soluble extracellular polysaccharide was separated and purified from the supernatant and insoluble extracellular polysaccharide from the cell pellet, and then these were quantified. So the experimental results that represent inhibitory effect of medium-chain fatty acids upon extracellular polysaccharide synthesis, are shown in table 1, 2, 3 and 4.

dental caries = assay: Inhibitory effect on the occurrence of dental caries in rats; type: in vivo, Sprague-Dawley rats; conditions: for Linear unit for fissure-region dental caries, Dm: dentine moderate; for Linear unit for fissure-region dental caries, Dm / Linear unit for fissure-region dental caries, Ds / Linear unit for fissure-region dental caries, E: 50 mM in feed, 120 days; for Linear unit for fissure-region dental caries, Ds: dentine slight; for Linear unit for fissure-region dental caries, E: enamel only
Protocol: This experiment was carried out utilizing a dental caries experiment model in rats of Navia (1977) as followings.
Experimental animals were 48 (male: 24, female: 24) Sprague-Dawley rats, four-weeks old and of […] average body weight. These animals are equally divided into three groups according to sex and body weight at the early stage, and all these animals have clinically healthy teeth.
Experimental animals are divided into 3 groups according to diet, which are a control group of normal feed, a group of dental caries-induced feed and a experimental group of sodium laurate-added feed. Normal feed is solid feed for rodents (SAMYANG Co., Korea), caries-induced feed is prepared by mixing 40% sugar, 32% powdered milk, 21% flour, 5% yeast, 2% anchovy, 0.01% vitamin B and 0.01% vitamin C. Sodium laurate-added feed was prepared by adding 50 mM of sodium laurate to caries-induced feed. All the experimental animals were allowed water ad libitum.
One hundred twenty days later, all experimental animals were euthanized. The maxilla and mandible were separated, and fixed in 10% neutral formalin. A dental caries index was measured by the method originated by Keyes and modified by Larson (1981). Food debris remaining in the fissure of molar of maxilla and mandible was removed by a Barbed Broach tool used in clinical dentistry, then the molar teeth of maxilla and mandible were cut so that they could include the first, second, and third molar by using an Exact cutting system (Exact-Apprateb, Hamburg, Germany) equipped with a diamond-treated saw. Cutting of the molar teeth of both maxilla and mandible was carried out by a handpiece equipped with cutting disc (thickness, 0.004 inch; diameter, 0.75 inch). The direction of the cutting was from the mesial side of the first molar to the distal side of the third molar. The samples which were cut were stained in order to measure the dental caries-index easily. Staining was carried out as follows; samples were cultured with 0.02% solution of ammonium prupurate (murexide) for 12 hours, washed with flowing water for 10 minutes, then treated with 0.2% of ammoniacal silver nitrate for 30 seconds and washed with flowing water for 2 minutes before measurement. The degree of the affection of dental caries at the cut surface is classified into enamel only (E) when dental caries is affected only to enamel; and into slight (Ds), moderate (Dm) and extensive (Dx) according to the extent of affection when dental caries is affected further into the dentine. The total sum was calculated by adding up marks within the range of linear units administered to each tooth according to the modified method of Larson (1981).
Statistical analysis of each group concerning the linear unit, showing the extent of dental caries, was carried out using the Mann-Whitney test. Statistical analysis according to the feed and the region where the teeth were placed (maxilla or mandible) was carried out by the Kruskal-Wallis test. If more than 2/3 of the dental crown was lost due to serious abrasion and if it was impossible to observe in the process of treating samples, these teeth were excluded in the statistics.

A. viscosus ATCC 15987 = assay: Inhibitory effect on extracellular polysaccharide synthesis, standard strain; type: cell-based; conditions: 1 mM
Protocol: as §1, with “quantified.” for “quantified. So the experimental results that represent inhibitory effect of medium-chain fatty acids upon extracellular polysaccharide synthesis, are shown in table 1, 2, 3 and 4.”

S. sanguis 10556 = assay: as above; type: cell-based; conditions: 1 mM
Protocol: as §1, with “quantified.” for “quantified. So the experimental results that represent inhibitory effect of medium-chain fatty acids upon extracellular polysaccharide synthesis, are shown in table 1, 2, 3 and 4.”

## CCCCCCCCCCCC(=O)[O-].[Na+] [C12, sodium laurate]
[1]
  inhibitory effect of acid production (in words): excellent inhibitory effect of acid production even at low concentration of 1 mM
[1]; listed as salt form of lauric acid
  inhibitory effect of acid production (in words): almost completely inhibits the acid production ability
[1]; acidic conditions, FIG. 1
  inhibitory effect of acid production in acidic conditions (in words): significant effect of acid production in acidic conditions
[1]; ranking, FIG. 1
  inhibitory effect of acid production, sequence: sodium laurate>sodium capriate>sodium nonanoate
[2]
  inhibition of soluble extracellular polysaccharide synthesis (in words): noticeably inhibits soluble extracellular polysaccharide synthesis
Dental caries; 164 teeth, P < 0.01 vs caries-inducing feed (3.01 ± 2.35), normal feed 2.34 ± 1.37
  Linear unit, Total (average ± standard deviation): 1.71 ± 1.26
Dental caries; Mandible, 1st molar
  Linear unit for fissure-region dental caries, Dm: 0
  Linear unit for fissure-region dental caries, Ds: 7
  Linear unit for fissure-region dental caries, E: 72
Dental caries; Mandible, 2nd molar
  Linear unit for fissure-region dental caries, Dm: 0
  Linear unit for fissure-region dental caries, Ds: 10
  Linear unit for fissure-region dental caries, E: 55
Dental caries; Mandible, 3rd molar
  Linear unit for fissure-region dental caries, Dm: 0
  Linear unit for fissure-region dental caries, Ds: 0
  Linear unit for fissure-region dental caries, E: 16
Dental caries; Maxilla, 1st molar
  Linear unit for fissure-region dental caries, Dm: 0
  Linear unit for fissure-region dental caries, Ds: 1
  Linear unit for fissure-region dental caries, E: 61
Dental caries; Maxilla, 2nd molar
  Linear unit for fissure-region dental caries, Dm: 0
  Linear unit for fissure-region dental caries, Ds: 0
  Linear unit for fissure-region dental caries, E: 41
Dental caries; Maxilla, 3rd molar
  Linear unit for fissure-region dental caries, Dm: 0
  Linear unit for fissure-region dental caries, Ds: 0
  Linear unit for fissure-region dental caries, E: 17
Dental caries; sodium laurate-added feed
  dental caries in experimental animals (in words): noticeably reduced dental caries in experimental animals
A. viscosus ATCC 15987; 2% glucose, 24-48 hours, control 2.1 ± 0.2
  Extracellular polysaccharide, insoluble: 0.2 ± 0.1 µg/mL
A. viscosus ATCC 15987; 2% glucose, 24-48 hours, control 222.8 ± 3.3
  Extracellular polysaccharide, soluble: 25.3 ± 1.7 µg/mL
A. viscosus ATCC 15987; vs control
  Inhibitory rate, soluble: 89%
S. sanguis 10556; 2% glucose, 24-48 hours, control 25.9 ± 4.3
  Extracellular polysaccharide, soluble: 12.2 ± 0.9 µg/mL
S. sanguis 10556; vs control
  Inhibitory rate, soluble: 53%
